Data as given in the kinase profiling compilation of Christmann-Franck et al. (2016).

Assays:
Test in all cases: KINOMEscan competition binding
Details in all cases: compound 10.0 µM
ACVR2B (human) = ACVR2B (human) (UniProt Q13705)
ALK (human) = ALK (human) (UniProt Q9UM73)
CDK4 CCND1 (human) = CDK4 CCND1 (human) (UniProt P11802+P24385)
CDKL2 (human) = CDKL2 (human) (UniProt Q92772)
CLK2 (human) = CLK2 (human) (UniProt P49760)
CLK4 (human) = CLK4 (human) (UniProt Q9HAZ1)
CSNK1A1L (human) = CSNK1A1L (human) (UniProt Q8N752)
DAPK2 (human) = DAPK2 (human) (UniProt Q9UIK4)
DCLK3 (human) = DCLK3 (human) (UniProt Q9C098)
EPHA2 (human) = EPHA2 (human) (UniProt P29317)
EPHA3 (human) = EPHA3 (human) (UniProt P29320)
EPHB6 (human) = EPHB6 (human) (UniProt O15197)
ERBB3 (human) = ERBB3 (human) (UniProt P21860)
FER (human) = FER (human) (UniProt P16591)
FLT3 (human) = FLT3 (human) (UniProt P36888)
IKBKE (human) = IKBKE (human) (UniProt Q14164)
INSRR (human) = INSRR (human) (UniProt P14616)
IRAK1 (human) = IRAK1 (human) (UniProt P51617)
MAP2K1 (human) = MAP2K1 (human) (UniProt Q02750)
MAP3K3 (human) = MAP3K3 (human) (UniProt Q99759)
MAP3K4 (human) = MAP3K4 (human) (UniProt Q9Y6R4)
MAPK13 (human) = MAPK13 (human) (UniProt O15264)
MAPK15 (human) = MAPK15 (human) (UniProt Q8TD08)
MAPK4 (human) = MAPK4 (human) (UniProt P31152)
NUAK1 (human) = NUAK1 (human) (UniProt O60285)
PHKG1 (human) = PHKG1 (human) (UniProt Q16816)
PIP5K1C (human) = PIP5K1C (human) (UniProt O60331)
PKN1 (human) = PKN1 (human) (UniProt Q16512)
PRKAA2 (human) = PRKAA2 (human) (UniProt P54646)
PRKACB (human) = PRKACB (human) (UniProt P22694)
PRKG1 (human) = PRKG1 (human) (UniProt Q13976)
PRKG2 (human) = PRKG2 (human) (UniProt Q13237)
ROS1 (human) = ROS1 (human) (UniProt P08922)
RPS6KA6 KD1 (human) = RPS6KA6 KD1 (human) (UniProt Q9UK32)
STK32B (human) = STK32B (human) (UniProt Q9NY57)
STK38L (human) = STK38L (human) (UniProt Q9Y2H1)
TEK (human) = TEK (human) (UniProt Q02763)
TLK1 (human) = TLK1 (human) (UniProt Q9UKI8)
TNK1 (human) = TNK1 (human) (UniProt Q13470)
WEE1 (human) = WEE1 (human) (UniProt P30291)

Chain of MAP2K1 (human) (Q02750 whole entry, looked up): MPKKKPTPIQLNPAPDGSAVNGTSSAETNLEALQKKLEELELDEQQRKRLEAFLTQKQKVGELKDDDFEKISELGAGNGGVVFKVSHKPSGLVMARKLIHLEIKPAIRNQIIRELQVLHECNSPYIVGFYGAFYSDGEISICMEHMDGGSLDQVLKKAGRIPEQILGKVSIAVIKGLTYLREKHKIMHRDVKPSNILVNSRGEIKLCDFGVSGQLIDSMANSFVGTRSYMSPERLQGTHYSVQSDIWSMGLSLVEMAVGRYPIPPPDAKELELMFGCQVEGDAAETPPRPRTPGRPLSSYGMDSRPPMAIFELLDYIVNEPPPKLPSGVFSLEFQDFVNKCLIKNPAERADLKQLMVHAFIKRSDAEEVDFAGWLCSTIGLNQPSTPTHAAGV
Chain of CLK4 (human) (Q9HAZ1 whole entry, looked up): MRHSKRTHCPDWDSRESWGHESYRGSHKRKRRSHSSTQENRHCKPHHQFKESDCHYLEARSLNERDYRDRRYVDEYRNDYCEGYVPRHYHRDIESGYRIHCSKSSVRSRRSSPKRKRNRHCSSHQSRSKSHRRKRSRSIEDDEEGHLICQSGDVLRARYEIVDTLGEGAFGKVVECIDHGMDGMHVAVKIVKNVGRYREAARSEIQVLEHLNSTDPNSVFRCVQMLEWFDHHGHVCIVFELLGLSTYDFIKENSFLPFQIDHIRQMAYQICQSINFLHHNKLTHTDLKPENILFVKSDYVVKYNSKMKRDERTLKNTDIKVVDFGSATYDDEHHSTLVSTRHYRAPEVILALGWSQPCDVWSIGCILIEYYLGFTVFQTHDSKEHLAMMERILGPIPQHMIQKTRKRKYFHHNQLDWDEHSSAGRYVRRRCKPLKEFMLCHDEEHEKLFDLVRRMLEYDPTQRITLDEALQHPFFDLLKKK
Chain of TEK (human) (Q02763 whole entry, looked up): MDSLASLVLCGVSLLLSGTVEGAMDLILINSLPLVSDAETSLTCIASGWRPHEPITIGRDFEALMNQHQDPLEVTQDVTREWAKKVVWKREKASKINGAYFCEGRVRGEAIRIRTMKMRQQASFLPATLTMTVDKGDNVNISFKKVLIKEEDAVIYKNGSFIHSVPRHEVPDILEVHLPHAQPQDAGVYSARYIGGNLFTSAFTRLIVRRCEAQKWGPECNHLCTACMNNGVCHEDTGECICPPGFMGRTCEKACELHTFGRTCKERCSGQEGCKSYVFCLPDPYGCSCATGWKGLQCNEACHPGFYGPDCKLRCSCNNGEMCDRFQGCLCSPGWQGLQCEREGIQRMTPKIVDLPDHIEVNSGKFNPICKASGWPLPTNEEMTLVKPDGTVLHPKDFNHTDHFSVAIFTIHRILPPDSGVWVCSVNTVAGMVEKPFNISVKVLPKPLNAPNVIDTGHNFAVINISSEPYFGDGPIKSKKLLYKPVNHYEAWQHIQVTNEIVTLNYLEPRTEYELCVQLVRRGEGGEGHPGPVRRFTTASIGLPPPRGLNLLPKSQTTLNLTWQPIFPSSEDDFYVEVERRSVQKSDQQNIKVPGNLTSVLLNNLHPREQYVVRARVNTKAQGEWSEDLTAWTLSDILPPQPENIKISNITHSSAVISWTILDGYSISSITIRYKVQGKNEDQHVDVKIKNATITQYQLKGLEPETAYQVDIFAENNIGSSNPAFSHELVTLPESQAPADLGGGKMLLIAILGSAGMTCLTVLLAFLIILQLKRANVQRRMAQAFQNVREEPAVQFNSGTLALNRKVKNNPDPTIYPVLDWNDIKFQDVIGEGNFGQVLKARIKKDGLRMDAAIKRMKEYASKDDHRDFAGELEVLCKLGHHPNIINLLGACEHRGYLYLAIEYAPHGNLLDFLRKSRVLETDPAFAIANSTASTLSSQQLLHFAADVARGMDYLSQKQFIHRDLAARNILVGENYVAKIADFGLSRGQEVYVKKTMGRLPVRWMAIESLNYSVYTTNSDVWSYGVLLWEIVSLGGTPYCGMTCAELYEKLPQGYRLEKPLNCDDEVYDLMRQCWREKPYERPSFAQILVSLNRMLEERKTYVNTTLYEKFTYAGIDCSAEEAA
Chain of PRKG2 (human) (Q13237 whole entry, looked up): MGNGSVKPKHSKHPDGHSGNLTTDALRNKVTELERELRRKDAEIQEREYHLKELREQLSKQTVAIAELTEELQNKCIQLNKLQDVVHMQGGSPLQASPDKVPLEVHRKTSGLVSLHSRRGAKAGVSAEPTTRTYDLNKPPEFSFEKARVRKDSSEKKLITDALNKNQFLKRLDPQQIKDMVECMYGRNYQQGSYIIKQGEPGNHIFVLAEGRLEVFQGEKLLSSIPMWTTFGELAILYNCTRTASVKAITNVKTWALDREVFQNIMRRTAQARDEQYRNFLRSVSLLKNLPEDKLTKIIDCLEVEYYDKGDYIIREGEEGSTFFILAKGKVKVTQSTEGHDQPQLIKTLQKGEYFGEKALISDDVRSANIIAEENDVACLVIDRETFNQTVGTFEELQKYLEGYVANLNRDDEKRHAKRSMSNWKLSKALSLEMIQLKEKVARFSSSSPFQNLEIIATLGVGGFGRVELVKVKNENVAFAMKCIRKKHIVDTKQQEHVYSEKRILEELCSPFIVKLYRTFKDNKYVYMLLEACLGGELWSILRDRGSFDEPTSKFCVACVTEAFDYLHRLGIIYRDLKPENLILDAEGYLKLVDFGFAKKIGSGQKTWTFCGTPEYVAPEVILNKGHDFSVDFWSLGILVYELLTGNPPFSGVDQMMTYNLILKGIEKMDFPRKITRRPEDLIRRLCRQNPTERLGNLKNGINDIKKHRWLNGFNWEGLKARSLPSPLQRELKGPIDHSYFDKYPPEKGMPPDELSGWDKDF
Chain of DAPK2 (human) (Q9UIK4 whole entry, looked up): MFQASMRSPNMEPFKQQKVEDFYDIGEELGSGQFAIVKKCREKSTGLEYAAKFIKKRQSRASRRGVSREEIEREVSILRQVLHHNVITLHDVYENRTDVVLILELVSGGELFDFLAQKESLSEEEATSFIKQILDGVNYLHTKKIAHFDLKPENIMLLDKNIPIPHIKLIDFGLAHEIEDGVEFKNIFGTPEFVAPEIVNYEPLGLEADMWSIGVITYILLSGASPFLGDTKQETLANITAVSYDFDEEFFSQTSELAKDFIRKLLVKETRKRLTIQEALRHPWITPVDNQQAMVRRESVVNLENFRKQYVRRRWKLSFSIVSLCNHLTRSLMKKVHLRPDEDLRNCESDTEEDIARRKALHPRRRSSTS
Chain of MAP3K3 (human) (Q99759 whole entry, looked up): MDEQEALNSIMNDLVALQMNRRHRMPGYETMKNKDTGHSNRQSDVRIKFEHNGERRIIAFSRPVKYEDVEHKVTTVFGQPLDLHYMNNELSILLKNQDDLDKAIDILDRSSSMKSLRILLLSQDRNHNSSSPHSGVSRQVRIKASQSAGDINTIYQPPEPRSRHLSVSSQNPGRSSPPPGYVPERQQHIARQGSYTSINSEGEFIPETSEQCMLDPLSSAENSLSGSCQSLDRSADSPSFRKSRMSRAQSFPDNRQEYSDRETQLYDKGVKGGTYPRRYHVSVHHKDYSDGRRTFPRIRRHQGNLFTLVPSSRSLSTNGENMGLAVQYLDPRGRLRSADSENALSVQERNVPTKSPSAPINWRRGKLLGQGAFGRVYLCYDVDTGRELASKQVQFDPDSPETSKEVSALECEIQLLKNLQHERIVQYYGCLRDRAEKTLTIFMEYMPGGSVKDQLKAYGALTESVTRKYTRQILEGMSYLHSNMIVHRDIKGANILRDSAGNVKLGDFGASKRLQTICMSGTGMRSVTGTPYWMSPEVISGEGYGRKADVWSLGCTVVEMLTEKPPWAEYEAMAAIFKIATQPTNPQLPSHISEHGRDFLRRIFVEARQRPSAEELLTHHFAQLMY
Chain of EPHA3 (human) (P29320 whole entry, looked up): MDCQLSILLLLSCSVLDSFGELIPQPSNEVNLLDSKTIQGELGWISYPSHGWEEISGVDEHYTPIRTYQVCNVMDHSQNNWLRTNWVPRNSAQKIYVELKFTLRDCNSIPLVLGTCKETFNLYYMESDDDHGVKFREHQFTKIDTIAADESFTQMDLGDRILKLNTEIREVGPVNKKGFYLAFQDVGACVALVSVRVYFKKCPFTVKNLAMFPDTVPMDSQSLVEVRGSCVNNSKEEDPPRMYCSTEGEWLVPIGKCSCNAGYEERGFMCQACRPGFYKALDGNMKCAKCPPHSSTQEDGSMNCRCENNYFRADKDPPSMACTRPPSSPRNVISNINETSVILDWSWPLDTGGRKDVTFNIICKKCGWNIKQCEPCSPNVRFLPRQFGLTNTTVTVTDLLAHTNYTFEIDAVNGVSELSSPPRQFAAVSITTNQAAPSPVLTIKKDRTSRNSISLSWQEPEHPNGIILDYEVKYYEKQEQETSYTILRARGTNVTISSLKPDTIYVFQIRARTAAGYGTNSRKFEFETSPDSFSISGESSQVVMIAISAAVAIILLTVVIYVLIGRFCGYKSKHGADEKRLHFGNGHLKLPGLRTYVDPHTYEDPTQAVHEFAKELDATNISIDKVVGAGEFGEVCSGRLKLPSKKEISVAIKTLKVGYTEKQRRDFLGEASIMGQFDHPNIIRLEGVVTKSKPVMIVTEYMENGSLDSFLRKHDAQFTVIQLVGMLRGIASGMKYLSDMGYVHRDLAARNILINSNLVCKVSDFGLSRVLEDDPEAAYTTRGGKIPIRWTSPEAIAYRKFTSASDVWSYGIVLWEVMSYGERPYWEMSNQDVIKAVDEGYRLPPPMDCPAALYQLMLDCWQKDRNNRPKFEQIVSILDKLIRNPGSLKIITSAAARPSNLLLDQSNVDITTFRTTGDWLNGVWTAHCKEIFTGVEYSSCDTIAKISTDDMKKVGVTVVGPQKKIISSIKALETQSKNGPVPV

Row | SMILES | kinase still bound, per cent of control (ACVR2B (human)) | kinase still bound, per cent of control (ALK (human)) | kinase still bound, per cent of control (CDK4 CCND1 (human)) | kinase still bound, per cent of control (CDKL2 (human)) | kinase still bound, per cent of control (CLK2 (human)) | kinase still bound, per cent of control (CLK4 (human)) | kinase still bound, per cent of control (CSNK1A1L (human)) | kinase still bound, per cent of control (DAPK2 (human)) | kinase still bound, per cent of control (DCLK3 (human)) | kinase still bound, per cent of control (EPHA2 (human)) | kinase still bound, per cent of control (EPHA3 (human)) | kinase still bound, per cent of control (EPHB6 (human)) | kinase still bound, per cent of control (ERBB3 (human)) | kinase still bound, per cent of control (FER (human)) | kinase still bound, per cent of control (FLT3 (human)) | kinase still bound, per cent of control (IKBKE (human)) | kinase still bound, per cent of control (INSRR (human)) | kinase still bound, per cent of control (IRAK1 (human)) | kinase still bound, per cent of control (MAP2K1 (human)) | kinase still bound, per cent of control (MAP3K3 (human)) | also measured
1 | N#Cc1cc(-c2ccnc(Nc3ccc(-n4cnc(-c5cccnc5)n4)cc3)n2)cc(N2CCOCC2)c1 | 49% | 100% | 100% | 2% | 15% | 7.2% | 80% | 96% | 100% | 56% | 58% | 14% | 69% | 99% | 18% | 37% | 68% | 9.3% | 50% | 30% | kinase still bound, per cent of control (MAP3K4 (human)): 50%; kinase still bound, per cent of control (MAPK13 (human)): 61%; kinase still bound, per cent of control (MAPK15 (human)): 2%; kinase still bound, per cent of control (MAPK4 (human)): 5%; kinase still bound, per cent of control (NUAK1 (human)): 100%; kinase still bound, per cent of control (PHKG1 (human)): 65%; kinase still bound, per cent of control (PIP5K1C (human)): 100%; kinase still bound, per cent of control (PKN1 (human)): 48%; kinase still bound, per cent of control (PRKAA2 (human)): 94%; kinase still bound, per cent of control (PRKACB (human)): 100%; kinase still bound, per cent of control (PRKG1 (human)): 100%; kinase still bound, per cent of control (PRKG2 (human)): 74%; kinase still bound, per cent of control (ROS1 (human)): 17%; kinase still bound, per cent of control (RPS6KA6 KD1 (human)): 60%; kinase still bound, per cent of control (STK32B (human)): 100%; kinase still bound, per cent of control (STK38L (human)): 100%; kinase still bound, per cent of control (TEK (human)): 67%; kinase still bound, per cent of control (TLK1 (human)): 39%; kinase still bound, per cent of control (TNK1 (human)): 25%; kinase still bound, per cent of control (WEE1 (human)): 82%
2 | COc1cc2c(Nc3ccc(NC(=O)c4ccccc4)cc3)ncnc2cc1OCCCN1CCOCC1 | 100% | 26% | 93% | 12% | 80% | 100% | 99% | 90% | 96% | 84% | 60% | 2% | 1% | 65% | 8.8% | 62% | 100% | 66% | 0.1% | 18% | kinase still bound, per cent of control (MAP3K4 (human)): 62%; kinase still bound, per cent of control (MAPK13 (human)): 40%; kinase still bound, per cent of control (MAPK15 (human)): 100%; kinase still bound, per cent of control (MAPK4 (human)): 100%; kinase still bound, per cent of control (NUAK1 (human)): 92%; kinase still bound, per cent of control (PHKG1 (human)): 53%; kinase still bound, per cent of control (PIP5K1C (human)): 69%; kinase still bound, per cent of control (PKN1 (human)): 100%; kinase still bound, per cent of control (PRKAA2 (human)): 72%; kinase still bound, per cent of control (PRKACB (human)): 100%; kinase still bound, per cent of control (PRKG1 (human)): 100%; kinase still bound, per cent of control (PRKG2 (human)): 91%; kinase still bound, per cent of control (ROS1 (human)): 41%; kinase still bound, per cent of control (RPS6KA6 KD1 (human)): 68%; kinase still bound, per cent of control (STK32B (human)): 100%; kinase still bound, per cent of control (STK38L (human)): 100%; kinase still bound, per cent of control (TEK (human)): 33%; kinase still bound, per cent of control (TLK1 (human)): 78%; kinase still bound, per cent of control (TNK1 (human)): 69%; kinase still bound, per cent of control (WEE1 (human)): 100%
